Starred links: 1 amine or outer side, 2 acyl side, 3 side chain; linkers in the order of their positions; H or OH if unused. Non-standard residues stand in square brackets, D forms with d. Residues, ends and D or L forms follow the SMILES beside them. Groups on a side chain read outwards from the residue. *: point of attachment. X1 = O=C(O)CCCCCCCCCCCCCCCCCCC(=O)N1CCN(CC(=O)*)CC1; C20 diacid = O=C(O)CCCCCCCCCCCCCCCCCCC(=O)*; γGlu = O=C(O)[C@H](CCC(=O)[*:2])N[*:1]; AEEA = NCCOCCOCC(=O)O; Aib = CC(C)(N)C(=O)O
Columns and labels:
[1] = target: human GLP-1 receptor (GLP-1R) (Homo sapiens, UniProt P43220); assay: Activity assay at human GLP-1 receptor, cAMP induction (AlphaScreen), Example 3
[2] = target: T1, human GIP receptor (GIP R) (Homo sapiens, UniProt P48546); assay: Activity assay at human GIP receptor, cAMP induction (AlphaScreen), Example 3
T1 sequence (P48546 22-466): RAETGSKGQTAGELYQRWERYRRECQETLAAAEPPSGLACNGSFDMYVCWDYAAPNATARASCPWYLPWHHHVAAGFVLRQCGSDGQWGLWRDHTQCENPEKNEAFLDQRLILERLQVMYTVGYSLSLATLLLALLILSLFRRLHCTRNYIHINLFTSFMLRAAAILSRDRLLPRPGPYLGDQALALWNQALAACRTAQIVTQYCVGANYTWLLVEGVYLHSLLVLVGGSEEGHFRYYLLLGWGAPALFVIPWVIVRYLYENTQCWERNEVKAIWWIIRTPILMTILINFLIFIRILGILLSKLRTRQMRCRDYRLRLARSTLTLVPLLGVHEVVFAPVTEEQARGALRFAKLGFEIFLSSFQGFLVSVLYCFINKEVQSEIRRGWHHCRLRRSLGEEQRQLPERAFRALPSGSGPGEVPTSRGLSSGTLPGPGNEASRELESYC

[3] = target: T2, human GIP R (Homo sapiens, UniProt P48546); assay: cell-based
T2 sequence (P48546 22-466): T1 sequence (P48546 22-466)

Sequence of human GLP-1 receptor (GLP-1R) (P43220 24-463): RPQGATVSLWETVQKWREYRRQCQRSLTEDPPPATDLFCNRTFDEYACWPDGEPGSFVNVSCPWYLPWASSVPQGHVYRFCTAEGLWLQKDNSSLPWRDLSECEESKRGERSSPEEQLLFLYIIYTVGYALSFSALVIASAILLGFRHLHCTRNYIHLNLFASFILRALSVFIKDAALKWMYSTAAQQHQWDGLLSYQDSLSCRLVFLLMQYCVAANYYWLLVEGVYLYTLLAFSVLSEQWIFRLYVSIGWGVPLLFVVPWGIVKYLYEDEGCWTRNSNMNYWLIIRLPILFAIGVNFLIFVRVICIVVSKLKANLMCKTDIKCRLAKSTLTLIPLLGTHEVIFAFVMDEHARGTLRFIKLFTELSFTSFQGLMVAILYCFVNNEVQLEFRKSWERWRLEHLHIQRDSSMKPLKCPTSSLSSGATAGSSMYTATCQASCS

SMILES	EC50 [1] [nM]	EC50 [2] [nM]	EC50 [3] [nM]
CC[C@H](C)[C@H](NC(=O)[C@H](Cc1ccccc1)NC(=O)[C@H](C)NC(=O)[C@H](CCCNC(=N)N)NC(=O)[C@H](CCC(N)=O)NC(=O)[C@H](C)NC(=O)[C@H](CCCCNC(=O)COCCOCCNC(=O)COCCOCCNC(=O)CC[C@H](NC(=O)CCCCCCCCCCCCCCCCCCC(=O)O)C(=O)O)NC(=O)[C@H](CCCCN)NC(=O)[C@H](CC(=O)O)NC(=O)[C@H](CC(C)C)NC(=O)[C@H](CCC(=O)O)NC(=O)[C@@H](NC(=O)[C@H](CO)NC(=O)[C@H](Cc1ccc(O)cc1)NC(=O)[C@H](CC(=O)O)NC(=O)[C@H](CO)NC(=O)[C@@H](NC(=O)[C@H](Cc1ccccc1)NC(=O)[C@@H](NC(=O)CNC(=O)[C@H](CCC(=O)O)NC(=O)[C@@H](C)NC(=O)[C@@H](N)Cc1ccc(O)cc1)[C@@H](C)O)[C@@H](C)CC)[C@@H](C)CC)C(=O)N[C@@H](CCC(=O)O)C(=O)N[C@@H](Cc1c[nH]c2ccccc12)C(=O)N[C@@H](CC(C)C)C(=O)N[C@@H](CC(C)C)C(=O)N[C@@H](C)C(=O)N[C@@H](CCC(N)=O)C(=O)NCC(=O)N1CCC[C@H]1C(=O)N[C@@H](CO)C(=O)N[C@@H](CO)C(=O)NCC(=O)N[C@@H](C)C(=O)N1CCC[C@H]1C(=O)N1CCC[C@H]1C(=O)N1CCC[C@H]1C(=O)N[C@@H](CO)C(N)=O [Compound 36] (H-Y[dA]EGTFISDYSIELDKK([AEEA-AEEA-γGlu-C20 diacid])AQRAFIEWLLAQGPSSGAPPPS-NH2)	> 10	0.006	0.006
CC[C@H](C)[C@H](NC(=O)[C@H](CO)NC(=O)[C@H](Cc1ccc(O)cc1)NC(=O)[C@H](CC(=O)O)NC(=O)[C@H](CO)NC(=O)[C@@H](NC(=O)[C@H](Cc1ccccc1)NC(=O)[C@@H](NC(=O)CNC(=O)[C@H](CCC(=O)O)NC(=O)C(C)(C)NC(=O)[C@@H](N)Cc1ccc(O)cc1)[C@@H](C)O)[C@@H](C)CC)C(=O)N[C@@H](CCC(=O)O)C(=O)N[C@@H](CC(C)C)C(=O)N[C@@H](CCC(=O)O)C(=O)N[C@@H](CCCCN)C(=O)N[C@@H](CCCCNC(=O)COCCOCCNC(=O)COCCOCCNC(=O)CC[C@H](NC(=O)CCCCCCCCCCCCCCCCCCC(=O)O)C(=O)O)C(=O)N[C@@H](C)C(=O)N[C@@H](C)C(=O)N[C@@H](CCCCN)C(=O)N[C@@H](CCC(=O)O)C(=O)N[C@@H](Cc1ccccc1)C(=O)N[C@H](C(=O)N[C@@H](CC(N)=O)C(=O)N[C@@H](Cc1c[nH]c2ccccc12)C(=O)N[C@@H](CC(C)C)C(=O)N[C@@H](CC(C)C)C(=O)N[C@@H](C)C(=O)N[C@@H](CCC(N)=O)C(=O)NCC(=O)N1CCC[C@H]1C(=O)N[C@@H](CO)C(=O)N[C@@H](CO)C(=O)NCC(=O)N[C@@H](C)C(=O)N1CCC[C@H]1C(=O)N1CCC[C@H]1C(=O)N1CCC[C@H]1C(=O)N[C@@H](CO)C(N)=O)C(C)C [Compound 11] (H-Y[Aib]EGTFISDYSIELEKK([AEEA-AEEA-γGlu-C20 diacid])AAKEFVNWLLAQGPSSGAPPPS-NH2)	> 3	0.008	0.009
CC[C@H](C)[C@H](NC(=O)[C@H](CCCCN)NC(=O)[C@H](CC(=O)O)NC(=O)[C@H](CC(C)C)NC(=O)[C@H](CCC(=O)O)NC(=O)[C@@H](NC(=O)[C@H](CO)NC(=O)[C@H](Cc1ccc(O)cc1)NC(=O)[C@H](CC(=O)O)NC(=O)[C@H](CO)NC(=O)[C@@H](NC(=O)[C@H](Cc1ccccc1)NC(=O)[C@@H](NC(=O)CNC(=O)[C@H](CCC(=O)O)NC(=O)C(C)(C)NC(=O)[C@@H](N)Cc1ccc(O)cc1)[C@@H](C)O)[C@@H](C)CC)[C@@H](C)CC)C(=O)N[C@@H](C)C(=O)N[C@@H](CCC(N)=O)C(=O)N[C@@H](CCCCN)C(=O)N[C@@H](CCC(=O)O)C(=O)N[C@@H](Cc1ccccc1)C(=O)N[C@H](C(=O)N[C@@H](CCC(=O)O)C(=O)N[C@@H](Cc1c[nH]c2ccccc12)C(=O)N[C@@H](CC(C)C)C(=O)N[C@@H](CC(C)C)C(=O)N[C@@H](C)C(=O)NCC(=O)N1CCC[C@H]1C(=O)N[C@@H](CO)C(=O)N[C@@H](CO)C(=O)NCC(=O)N[C@@H](C)C(=O)N1CCC[C@H]1C(=O)N1CCC[C@H]1C(=O)N1CCC[C@H]1C(=O)N[C@@H](CO)C(=O)N[C@@H](CCCCNC(=O)COCCOCCNC(=O)COCCOCCNC(=O)CC[C@H](NC(=O)CCCCCCCCCCCCCCCCCCC(=O)O)C(=O)O)C(N)=O)[C@@H](C)CC [Compound 24] (H-Y[Aib]EGTFISDYSIELDKIAQKEFIEWLLAGPSSGAPPPSK([AEEA-AEEA-γGlu-C20 diacid])-NH2)	> 10	0.01	0.008
CC[C@H](C)[C@H](NC(=O)[C@H](CCCCN)NC(=O)[C@H](CC(=O)O)NC(=O)[C@H](CC(C)C)NC(=O)[C@H](CCC(=O)O)NC(=O)[C@@H](NC(=O)[C@H](CO)NC(=O)[C@H](Cc1ccc(O)cc1)NC(=O)[C@H](CC(=O)O)NC(=O)[C@H](CO)NC(=O)[C@@H](NC(=O)[C@H](Cc1ccccc1)NC(=O)[C@@H](NC(=O)CNC(=O)[C@H](CCC(=O)O)NC(=O)C(C)(C)NC(=O)[C@@H](N)Cc1ccc(O)cc1)[C@@H](C)O)[C@@H](C)CC)[C@@H](C)CC)C(=O)N[C@@H](C)C(=O)N[C@@H](C)C(=O)N[C@@H](CCC(N)=O)C(=O)N[C@@H](CC(=O)O)C(=O)N[C@@H](Cc1ccccc1)C(=O)N[C@H](C(=O)N[C@@H](CCC(=O)O)C(=O)N[C@@H](Cc1c[nH]c2ccccc12)C(=O)N[C@@H](CC(C)C)C(=O)N[C@@H](CC(C)C)C(=O)N[C@@H](C)C(=O)NCC(=O)N1CCC[C@H]1C(=O)N[C@@H](CO)C(=O)N[C@@H](CO)C(=O)NCC(=O)N[C@@H](C)C(=O)N1CCC[C@H]1C(=O)N1CCC[C@H]1C(=O)N1CCC[C@H]1C(=O)N[C@@H](CO)C(=O)N[C@@H](CCCCNC(=O)COCCOCCNC(=O)COCCOCCNC(=O)CN1CCN(C(=O)CCCCCCCCCCCCCCCCCCC(=O)O)CC1)C(N)=O)[C@@H](C)CC [Compound 26] (H-Y[Aib]EGTFISDYSIELDKIAAQDFIEWLLAGPSSGAPPPSK([AEEA-AEEA-X1])-NH2)	> 10	0.032	0.017
CC[C@H](C)[C@H](NC(=O)[C@H](Cc1ccccc1)NC(=O)[C@H](CC(=O)O)NC(=O)[C@H](CCC(N)=O)NC(=O)[C@H](C)NC(=O)[C@H](C)NC(=O)[C@H](CCCCNC(=O)COCCOCCNC(=O)COCCOCCNC(=O)CC[C@H](NC(=O)CCCCCCCCCCCCCCCCCCC(=O)O)C(=O)O)NC(=O)[C@H](CCCCN)NC(=O)[C@H](CC(=O)O)NC(=O)[C@H](CC(C)C)NC(=O)[C@H](CCC(=O)O)NC(=O)[C@@H](NC(=O)[C@H](CO)NC(=O)[C@H](Cc1ccc(O)cc1)NC(=O)[C@H](CC(=O)O)NC(=O)[C@H](CO)NC(=O)[C@@H](NC(=O)[C@H](Cc1ccccc1)NC(=O)[C@@H](NC(=O)CNC(=O)[C@H](CCC(=O)O)NC(=O)C(C)(C)NC(=O)[C@@H](N)Cc1ccc(O)cc1)[C@@H](C)O)[C@@H](C)CC)[C@@H](C)CC)C(=O)N[C@@H](CCC(=O)O)C(=O)N[C@@H](Cc1c[nH]c2ccccc12)C(=O)N[C@@H](CC(C)C)C(=O)N[C@@H](CC(C)C)C(=O)N[C@@H](C)C(=O)N[C@@H](CCC(N)=O)C(=O)NCC(=O)N1CCC[C@H]1C(=O)N[C@@H](CO)C(=O)N[C@@H](CO)C(=O)NCC(=O)N[C@@H](C)C(=O)N1CCC[C@H]1C(=O)N1CCC[C@H]1C(=O)N1CCC[C@H]1C(=O)N[C@@H](CO)C(N)=O [Compound 38] (H-Y[Aib]EGTFISDYSIELDKK([AEEA-AEEA-γGlu-C20 diacid])AAQDFIEWLLAQGPSSGAPPPS-NH2)	> 100	0.017	0.001
CC[C@H](C)[C@H](NC(=O)[C@H](CCCCN)NC(=O)[C@H](CC(=O)O)NC(=O)[C@H](CC(C)C)NC(=O)[C@H](CCC(=O)O)NC(=O)[C@@H](NC(=O)[C@H](CO)NC(=O)[C@H](Cc1ccc(O)cc1)NC(=O)[C@H](CC(=O)O)NC(=O)[C@H](CO)NC(=O)[C@@H](NC(=O)[C@H](Cc1ccccc1)NC(=O)[C@@H](NC(=O)CNC(=O)[C@H](CCC(=O)O)NC(=O)[C@@H](C)NC(=O)[C@@H](N)Cc1ccc(O)cc1)[C@@H](C)O)[C@@H](C)CC)[C@@H](C)CC)C(=O)N[C@@H](C)C(=O)N[C@@H](C)C(=O)N[C@@H](CCC(N)=O)C(=O)N[C@@H](CC(=O)O)C(=O)N[C@@H](Cc1ccccc1)C(=O)N[C@H](C(=O)N[C@@H](CCC(=O)O)C(=O)N[C@@H](Cc1c[nH]c2ccccc12)C(=O)N[C@@H](CC(C)C)C(=O)N[C@@H](CC(C)C)C(=O)N[C@@H](C)C(=O)NCC(=O)N1CCC[C@H]1C(=O)N[C@@H](CO)C(=O)N[C@@H](CO)C(=O)NCC(=O)N[C@@H](C)C(=O)N1CCC[C@H]1C(=O)N1CCC[C@H]1C(=O)N1CCC[C@H]1C(=O)N[C@@H](CO)C(=O)N[C@@H](CCCCNC(=O)COCCOCCNC(=O)COCCOCCNC(=O)CN1CCN(C(=O)CCCCCCCCCCCCCCCCCCC(=O)O)CC1)C(N)=O)[C@@H](C)CC [Compound 37] (H-Y[dA]EGTFISDYSIELDKIAAQDFIEWLLAGPSSGAPPPSK([AEEA-AEEA-X1])-NH2)	> 10	0.006	0.016
